pIC50: −log10 of the molar value. ≈ marks a conversion by molar mass, not a printed value.
Tests used:
[1] = Metabolic stability in human microsomes assessed as compound remaining measured after 2 hrs; format: ADME, Microsome; settings: read-out: Stability
[2] = test system: Mycobacterium tuberculosis; test: Substrate activity at Mycobacterium tuberculosis Ddn expressed in Escherichia coli BL21 (DE3) assessed as oxidation of F420H2 by measuring Kcat/Km by spectrophotometric analysis
[3] = Volume of distribution at steady state in CD-1 mouse at 5 mg/kg, iv administered as DMSO/PEG400 formulation measured upto 24 hrs by LC-MS/MS analysis; format: ADME, organism-based; settings: in vivo, read-out: Vdss
[4] = Cmax in CD-1 mouse at 20 mg/kg, po administered as DMSO/PEG400 formulation measured upto 24 hrs by LC-MS/MS analysis; format: ADME, organism-based; parameters: dose 20 mg/kg, time < 24 hrs, route po; settings: in vivo
[5] = Plasma protein binding in mouse; format: ADME, cell-free; settings: read-out: PPB (converted)
[6] = Metabolic stability in mouse microsomes assessed as compound remaining measured after 2 hrs; format: ADME, Microsome; settings: read-out: Stability
[7] = Solubility of compound in water by LC-UV analysis; format: physicochemical; settings: water; read-out: solubility
[8] = test system: Mycolicibacterium smegmatis; test: Antimycobacterial activity against Mycobacterium smegmatis mc2155 ATCC 700084 assessed as bacterial growth inhibition incubated for 24 hrs under normoxic condition by resazurin microtiter assay; format: functional
[9] = Clearance in CD-1 mouse at 5 mg/kg, iv administered as DMSO/PEG400 formulation measured upto 24 hrs by LC-MS/MS analysis; format: ADME, organism-based; settings: in vivo
[10] = AUC(0 to 8 hrs) in CD-1 mouse at 20 mg/kg, po administered as DMSO/PEG400 formulation measured upto 24 hrs by LC-MS/MS analysis; format: ADME, organism-based; parameters: dose 20 mg/kg, time < 24 hrs, route po; settings: in vivo
[11] = Oral bioavailability in CD-1 mouse at 20 mg/kg administered as DMSO/PEG400 formulation measured upto 24 hrs by LC-MS/MS analysis; format: ADME, organism-based; settings: in vivo
[12] = Half life in CD-1 mouse at 5 mg/kg, iv administered as DMSO/PEG400 formulation measured upto 24 hrs by LC-MS/MS analysis; format: ADME, organism-based; settings: in vivo
[13] = test system: Mycobacterium tuberculosis; test: Substrate activity at Mycobacterium tuberculosis Ddn expressed in Escherichia coli BL21 (DE3) assessed as oxidation of F420H2 by measuring Km by spectrophotometric analysis
Mycobacterium avium = test: Antimycobacterial activity against Mycobacterium avium ATCC 25291 assessed as bacterial growth inhibition incubated for 6 days under normoxic condition by resazurin microtiter assay; format: functional; settings: ATCC 25291, 144 h, time 6 day
[14] = test system: Mycobacterium tuberculosis; test: Substrate activity at Mycobacterium tuberculosis Ddn expressed in Escherichia coli BL21 (DE3) assessed as oxidation of F420H2 by measuring Kcat by spectrophotometric analysis
[15] = Plasma protein binding in human; format: ADME, cell-free; settings: read-out: PPB (converted)
[16] = Stability in human plasma assessed as compound remaining measured after 2 hrs; format: ADME, cell-free; settings: read-out: Stability
[17] = Tmax in CD-1 mouse at 20 mg/kg, po administered as DMSO/PEG400 formulation measured upto 24 hrs by LC-MS/MS analysis; format: ADME, organism-based; settings: in vivo
[18] = test system: Mycobacterium tuberculosis; test: Antimycobacterial activity against Mycobacterium tuberculosis H37Rv ATCC 27294 assessed as bacterial growth inhibition incubated for 5 days under normoxic condition by resazurin microtiter assay; format: functional; settings: H37Rv ATCC 27294, 120 h, time 5 day
[19] = test system: Mycobacterium tuberculosis; test: Antimycobacterial activity against Mycobacterium tuberculosis H37Rv ATCC 27294 assessed as bacterial growth inhibition at 0.125 to 8 ug/ml incubated for 5 days under hypoxic condition by resazurin microtiter assay relative to control; format: functional; settings: dose 0.125-8 µg/ml; time 5 day; at 0.125 to 8 µg/mL
[20] = test system: Mycobacterium tuberculosis; test: Antimycobacterial activity against Mycobacterium tuberculosis H37Ra ATCC 25177 assessed as bacterial growth inhibition incubated for 6 days under normoxic condition by resazurin microtiter assay; format: functional; settings: H37Ra ATCC 25177, 144 h, time 6 day
[21] = Solubility of compound in PBS at 7.4 by LC-UV analysis; format: physicochemical; settings: pH 7.4
[22] = test system: Mycobacterium tuberculosis; test: Antimycobacterial activity against Mycobacterium tuberculosis H37Rv ATCC 27294 assessed as bacterial growth inhibition incubated for 5 days under hypoxic condition by resazurin microtiter assay; format: functional; settings: H37Rv ATCC 27294, 120 h, time 5 day
[23] = AUC(0 to 24 hrs) in CD-1 mouse at 20 mg/kg, po administered as DMSO/PEG400 formulation measured upto 24 hrs by LC-MS/MS analysis; format: ADME, organism-based; parameters: dose 20 mg/kg, time < 24 hrs, route po; settings: in vivo
[24] = Half life in CD-1 mouse at 20 mg/kg, po administered as DMSO/PEG400 formulation measured upto 24 hrs by LC-MS/MS analysis; format: ADME, organism-based; settings: in vivo
[25] = test system: Mycobacterium tuberculosis; test: Antimycobacterial activity against Mycobacterium tuberculosis H37Rv ATCC 27294 assessed as bacterial growth inhibition at 4 to 32 ug/ml incubated for 5 days under hypoxic condition by resazurin microtiter assay relative to control; format: functional; settings: dose 4-32 µg/ml; time 5 day
[26] = Selectivity index, ratio of CC50 for cytotoxicity against mouse 3T3 cells to IC50 for antitrypanosomal activity against Trypanosoma cruzi Tulahuen amastigotes infected in mouse 3T3 cells; format: toxicity, cell-based; settings: read-out: Ratio CC50/IC50
[27] = Cytotoxicity against mouse 3T3 cells; format: toxicity, cell-based; settings: NIH3T3 cells
Trypanosoma cruzi [28] = test: Antitrypanosomal activity against Trypanosoma cruzi Tulahuen amastigotes infected in mouse 3T3 cells assessed as inhibition of parasite growth incubated for 48 hrs by […] staining based analysis; format: functional, organism-based
Trypanosoma cruzi [29] = test: Antitrypanosomal activity against Trypanosoma cruzi Tulahuen amastigotes infected in mouse 3T3 cells assessed as reduction in parasite growth at Emax concentration incubated for 48 hrs by […] staining based analysis; format: functional; parameters: scale not given: the % may be the effect or the level left

O=c1c2nc([N+](=O)[O-])cn2ccn1Cc1cccc(OC(F)(F)F)c1
remaining at 2 h [1]: > 99% | kcat/Km [2]: 70 M⁻¹ s⁻¹ | Vd [3]: 1.1 L/kg | Cmax [4]: 2900 ng/mL | fraction unbound [5]: < 0.01 | remaining at 2 h [6]: 97% | solubility [7]: 5.4 µM (≈ 1.91 µg/mL) | MIC [8]: > 32 µg/mL | clearance [9]: 10.1 mL/min/kg | AUC(0-t) at 24 h [10]: 15600 ng·h/mL | bioavailability [11]: 73% | half-life [12]: 66 min | Km [13]: 45 µM | MIC (Mycobacterium avium): > 32 µg/mL | kcat [14]: 3.1 10^-3/s | fraction unbound [15]: < 0.01 | remaining at 2 h [16]: 99% | Tmax [17]: 3 h

O=c1c2nc([N+](=O)[O-])cn2ccn1Cc1ccc(-c2cccc(OC(F)(F)F)c2)cc1
kcat/Km [2]: 370 M⁻¹ s⁻¹ | Km [13]: 8.4 µM | kcat [14]: 3.1 10^-3/s

Cc1ccc(Cn2ccn3cc([N+](=O)[O-])nc3c2=O)cc1
kcat/Km [2]: 1710 M⁻¹ s⁻¹ | Km [13]: 2.5 µM | kcat [14]: 4.3 10^-3/s

O=c1c2nc([N+](=O)[O-])cn2ccn1Cc1ccc(-c2cccc(OC(F)(F)F)c2)nc1
kcat/Km [2]: 266 M⁻¹ s⁻¹ | Km [13]: 5 µM | kcat [14]: 1.3 10^-3/s

Cc1cccc(Cn2ccn3cc([N+](=O)[O-])nc3c2=O)c1
MIC [18]: 0.063 µg/mL (≈ 0.222 µM) | inhibition (INH) [19]: 70% | MIC [8]: > 32 µg/mL | MIC [20]: ≤ 0.016 µg/mL | MIC (Mycobacterium avium): > 32 µg/mL

Cc1cn2cc([N+](=O)[O-])nc2c(=O)n1Cc1ccc(OC(F)(F)F)cc1
MIC [18]: > 32 µg/mL | MIC [8]: > 32 µg/mL | MIC [20]: 4 µg/mL (≈ 10.9 µM) | MIC (Mycobacterium avium): > 32 µg/mL

O=C1c2nc([N+](=O)[O-])cn2CN1Cc1ccccc1
solubility [21]: 5.9 µM (≈ 1.52 µg/mL) | MIC [18]: > 32 µg/mL | MIC [22]: > 32 µg/mL | solubility [7]: 5.9 µM (≈ 1.52 µg/mL)

O=C1CCn2cc([N+](=O)[O-])nc2N1Cc1ccccc1
solubility [21]: 142 µM (≈ 38.7 µg/mL) | MIC [18]: > 32 µg/mL | MIC [22]: > 32 µg/mL | solubility [7]: 137 µM (≈ 37.3 µg/mL)

O=C(NCc1ccc(OC(F)(F)F)cc1)c1ncc([N+](=O)[O-])[nH]1
kcat/Km [2]: 6.9 M⁻¹ s⁻¹ | Km [13]: 31 µM | kcat [14]: 2.1 10^-4/s

O=c1c2nc([N+](=O)[O-])cn2ccn1Cc1ccc(N2CCCCC2)cc1
kcat/Km [2]: 773 M⁻¹ s⁻¹ | Km [13]: 2.2 µM | kcat [14]: 1.7 10^-3/s

O=c1c2nc([N+](=O)[O-])cn2ccn1Cc1cncc(-c2cccc(OC(F)(F)F)c2)c1
kcat/Km [2]: 3190 M⁻¹ s⁻¹ | Km [13]: 4.3 µM | kcat [14]: 1.4 10^-2/s

O=c1c2nc([N+](=O)[O-])cn2ccn1Cc1ccc(-c2ccc(OC(F)(F)F)cc2)cn1
AUC(0-t) at 24 h [23]: 45900 ng·h/mL | Vd [3]: 1.3 L/kg | Cmax [4]: 3600 ng/mL | half-life [24]: 366 min | clearance [9]: 2.06 mL/min/kg | bioavailability [11]: 45% | half-life [12]: 432 min | Tmax [17]: 5.3 h

O=c1c2nc([N+](=O)[O-])cn2ccn1Cc1cncc(-c2ccc(OC(F)(F)F)cc2)c1
kcat/Km [2]: 4470 M⁻¹ s⁻¹ | inhibition (INH) [25]: 82% | Km [13]: 2.6 µM | kcat [14]: 1.2 10^-2/s

NNC(=O)c1ccncc1 [ISONIAZID]
MIC [8]: > 32 µg/mL | MIC [20]: 0.031 µg/mL (≈ 0.226 µM) | MIC (Mycobacterium avium): > 32 µg/mL

Cc1c(C)n2cc([N+](=O)[O-])nc2c(=O)n1Cc1ccc(OC(F)(F)F)cc1
kcat/Km [2]: 244 M⁻¹ s⁻¹ | MIC [8]: > 32 µg/mL | Km [13]: 28 µM | MIC (Mycobacterium avium): > 32 µg/mL | kcat [14]: 6.9 10^-3/s

O=c1c2nc([N+](=O)[O-])cn2ccn1Cc1ccccc1
solubility [21]: 2.7 µM (≈ 0.73 µg/mL) | solubility [7]: 3.2 µM (≈ 0.865 µg/mL)

CC[C@@H]([C@H](C)O)n1ncn(-c2ccc(N3CCN(c4ccc(OC[C@@H]5CO[C@@](Cn6cncn6)(c6ccc(F)cc6F)C5)cc4)CC3)cc2)c1=O [POSACONAZOLE]
selectivity ratio [26]: > 569 | CC50 [27]: > 1000 nM | pIC50 (Trypanosoma cruzi [28]; NIH3T3, 48 h): 8.70 | IC90 (Trypanosoma cruzi [28]; NIH3T3, time 48 hrs): 4 nM | Activity (Trypanosoma cruzi [29]): 87%

Cc1nc(OCc2ccc(OC(F)(F)F)cc2)c2nc([N+](=O)[O-])cn2c1C
MIC [18]: > 32 µg/mL | kcat/Km [2]: 24 M⁻¹ s⁻¹ | MIC [22]: > 32 µg/mL | MIC [8]: > 32 µg/mL | Km [13]: 30 µM | MIC [20]: > 32 µg/mL | MIC (Mycobacterium avium): > 32 µg/mL | kcat [14]: 7 10^-4/s

— ChEMBL document CHEMBL5104178, “Nitroimidazopyrazinones with Oral Activity against Tuberculosis and Chagas Disease in Mouse Models of Infection” (J Med Chem, 2022)
